Experimental data taken from patent US6441021B1, “Sulfonated amino acid derivatives and metalloproteinase inhibitors containing the same” (Shionogi & Co., Ltd., priority 1996, dated 2002).
Like-named read-outs stand apart in the source and are kept apart here.

Tests used:
[1] = biological target: T1, MMP-9 (92 kDa, gelatinase B; type IV collagenase) (Homo sapiens, UniProt P14780); assay: Assay of type IV collagenase inhibitors: activated MMP-9 with type IV collagenase activity kit substrate, fluorescent intensity; type: biochemical
T1 construct: endogenous in cells; enzyme purified from the conditioned medium
Procedure: (1) Isolation and Purification of MMP-9 (92 kDa, Gelatinase B)
Type IV collagenase (MMP-9) was purified according to the methods descrived in the following literature.
Subsequently, activated MMP-9 was obtained by treating the pro-MMP-9 with trypsin.
(2) Assay Methods of Type IV Collagenase Inhibitors
Collagenase assay was performed using the activated MMP-9 described above and the substrate supplied in the type IV collagenase activity kit (YAGAI, inc.), according to the manufacturer's protocol. The following 4 assays are performed per compound (inhibitor).
(A) substrate (type IV collagenase), enzyme (MMP-9), inhibitor
(B) substrate (type IV collagenase), inhibitor
(C) substrate (type IV collagenase), enzyme (MMP-9)
(D) substrate (type IV collagenase)
According to the manufacturer's protocol, fluorescent intensity was measured and percent inhibition was determined by the following equation.
Inhibition (%)={1−(A−B)/(C−D)}×100

[2] = inhibition of type IV collagenase (MMP-9), concentration at which percent inhibition reaches 50%

T1 sequence (P14780 107-707 limits assumed): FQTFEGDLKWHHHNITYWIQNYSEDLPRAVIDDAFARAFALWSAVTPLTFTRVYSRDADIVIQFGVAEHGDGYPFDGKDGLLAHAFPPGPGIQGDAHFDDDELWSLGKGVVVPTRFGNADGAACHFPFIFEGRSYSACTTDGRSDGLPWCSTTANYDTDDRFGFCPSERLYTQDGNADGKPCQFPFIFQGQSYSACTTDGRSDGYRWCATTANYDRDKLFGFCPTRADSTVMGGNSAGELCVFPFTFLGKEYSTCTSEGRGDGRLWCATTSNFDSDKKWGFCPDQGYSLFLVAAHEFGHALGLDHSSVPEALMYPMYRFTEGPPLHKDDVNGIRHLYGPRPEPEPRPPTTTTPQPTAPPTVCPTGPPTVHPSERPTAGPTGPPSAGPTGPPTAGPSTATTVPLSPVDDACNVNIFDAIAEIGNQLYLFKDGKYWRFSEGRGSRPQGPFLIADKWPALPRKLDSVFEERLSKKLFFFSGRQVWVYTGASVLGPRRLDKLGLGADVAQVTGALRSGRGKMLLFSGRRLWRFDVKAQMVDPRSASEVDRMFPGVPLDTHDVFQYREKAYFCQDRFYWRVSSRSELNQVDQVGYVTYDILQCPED

Structure (SMILES)	melting point	IC50 [1]	IC50 [1, 2]
Cc1ccc(C(=O)Nc2ccc(S(=O)(=O)N[C@H](Cc3ccccc3)C(=O)O)cc2)cc1 [Example 190]	242 to 244 °C		59.7 nM
O=C(Nc1ccc(S(=O)(=O)N[C@H](Cc2ccccc2)C(=O)O)cc1)c1ccc(Br)cc1 [Example 189]	242 to 243 °C	37.5 nM	
Cc1cnc(C(=O)Nc2ccc(S(=O)(=O)N[C@H](Cc3ccccc3)C(=O)O)cc2)cn1 [Example 204]	236 to 237 °C	3950 nM	
O=C(Nc1ccc(S(=O)(=O)N[C@H](Cc2c[nH]c3ccccc23)C(=O)O)cc1)c1ccccc1 [Example 177]	215 to 217 °C		684 nM
O=C(Nc1ccc(S(=O)(=O)N[C@H](Cc2ccccc2)C(=O)O)cc1)c1ccc(Cl)nc1 [Example 193]	201 to 203 °C	722 nM	
O=C(Nc1ccc(S(=O)(=O)N[C@H](Cc2ccccc2)C(=O)O)cc1)c1ccccc1 [Example 188]	114 to 115 °C		843 nM
CC(C)[C@@H](NS(=O)(=O)c1ccc(NC(=O)c2ccc(Br)cc2)cc1)C(=O)O [Example 202]	229 to 230 °C	11.4 nM	
O=C(Nc1ccc(S(=O)(=O)N[C@H](Cc2ccccc2)C(=O)O)cc1)c1ccc(F)cc1 [Example 192]	218 to 220 °C	324 nM	
CC(C)[C@@H](NS(=O)(=O)c1ccc(NC(=O)c2ccc(F)cc2)cc1)C(=O)O [Example 198]	235 to 236 °C	493 nM	
O=C(Nc1ccc(S(=O)(=O)N[C@H](Cc2ccccc2)C(=O)O)cc1)c1ccc([N+](=O)[O-])cc1 [Example 187]	235 to 239 °C	177 nM	
CSc1ccc(C(=O)Nc2ccc(S(=O)(=O)N[C@@H](C(=O)O)C(C)C)cc2)cc1 [Example 197]	231 to 234 °C		16.1 nM
CSc1ccc(C(=O)Nc2ccc(S(=O)(=O)N[C@H](Cc3ccccc3)C(=O)O)cc2)cc1 [Example 191]	232 to 235 °C	9.5 nM	
Nc1ccc(C(=O)Nc2ccc(S(=O)(=O)N[C@H](Cc3c[nH]c4ccccc34)C(=O)O)cc2)cc1 [Example 179]	216 to 218 °C	2360 nM	
COc1ccc(C(=O)Nc2ccc(S(=O)(=O)N[C@H](Cc3ccccc3)C(=O)O)cc2)cc1 [Example 186]	237 to 239 °C	98.2 nM	

The next lines start with the values.

melting point	IC50 [1]	IC50 [1, 2]	Structure (SMILES)
132 to 132.5 °C	776 nM		CC(C)C[C@H](C(=O)O)N(C)S(=O)(=O)c1ccc(-c2nnn(-c3ccccc3)n2)cc1 [Example 257]
205 to 207 °C	316 nM		CCC(C)[C@@H](NS(=O)(=O)c1ccc(-c2nnn(-c3ccccc3)n2)cc1)C(=O)O (stereo partly drawn) [Example 221]
182 to 184 °C	2850 nM		O=C(O)[C@@H](Cc1ccccc1)NS(=O)(=O)c1ccc(-c2nnn(-c3ccc(Oc4ccccc4)cc3)n2)cc1 [Example 238]
110 to 111 °C	0.039 nM		CC(C)[C@H](C(=O)NO)N(C)S(=O)(=O)c1ccc(Oc2ccccc2)cc1 [Example 253]
224 to 225 °C	128 nM		O=C(O)C(Cc1c[nH]c2ccc(F)cc12)NS(=O)(=O)c1ccc(-c2nnn(-c3ccccc3)n2)cc1 (stereo not drawn) [Example 213]
204 to 207 °C	166 nM		COc1ccc(-n2nnc(-c3ccc(S(=O)(=O)N[C@@H](C(=O)O)C(C)(C)C)cc3)n2)cc1 [Example 226]
148 to 150 °C	0.63 nM		CC(C)[C@H](C(=O)NO)N(Cc1ccccc1)S(=O)(=O)c1ccc(Oc2ccccc2)cc1 [Example 254]
197 to 198 °C	215 nM		O=C(O)[C@@H](Cc1ccccc1)NS(=O)(=O)c1ccc(-c2nnn(-c3ccc(C(F)(F)F)cc3)n2)cc1 [Example 229]
199 to 202 °C	393 nM		Cn1cc(CC(NS(=O)(=O)c2ccc(-c3nnn(-c4ccccc4)n3)cc2)C(=O)O)c2ccccc21 (stereo not drawn) [Example 212]
190 °C (dec.)	349 nM		CC(C)[C@@H](NS(=O)(=O)c1ccc(-c2nnn(-c3ccc(O)cc3)n2)cc1)C(=O)O [Example 223]
145 to 148 °C	107 nM		Cc1cccc2[nH]cc(CC(NS(=O)(=O)c3ccc(-c4nnn(-c5ccccc5)n4)cc3)C(=O)O)c12 (stereo not drawn) [Example 216]
226 to 228 °C	243 nM		O=C(O)[C@@H](Cc1ccccc1)NS(=O)(=O)c1ccc(-c2nnn(-c3ccc(O)cc3)n2)cc1 [Example 239]
221 to 222 °C		110 nM	CC(C)[C@@H](NS(=O)(=O)c1ccc(-c2nnn(-c3ccccc3)n2)cc1)C(=O)O [Example 215]
223 to 225 °C	16.5 nM		CC(C)[C@@H](NS(=O)(=O)c1ccc(-c2nnn(-c3ccc(Cl)cc3)n2)cc1)C(=O)O [Example 244]
206 to 207 °C	601 nM		CC(C)[C@H](C(=O)O)N(C)S(=O)(=O)c1ccc(-c2nnn(-c3ccccc3)n2)cc1 [Example 256]
141 to 144 °C	130 nM		CSc1ccc(-c2ccc(S(=O)(=O)N(C)[C@@H](C(=O)O)C(C)C)s2)cc1 [Example 259]
203 to 205 °C	19.8 nM		O=C(O)[C@@H](Cc1c[nH]c2ccccc12)NS(=O)(=O)c1ccc(-c2nnn(-c3ccc(F)cc3)n2)cc1 [Example 227]
202 to 204 °C	832 nM		CC(C)C[C@@H](NS(=O)(=O)c1ccc(-c2nnn(-c3ccccc3)n2)cc1)C(=O)O [Example 214]
224 to 226 °C	304 nM		CC(C)(C)c1ccc(-n2nnc(-c3ccc(S(=O)(=O)N[C@H](Cc4ccccc4)C(=O)O)cc3)n2)cc1 [Example 236]
